Measured values published in paper PMC7997182, “Unravelling the Dermatological Potential of the Brown Seaweed Carpomitra costata” (Marine Drugs, 2021).

Legend:
collagenase (type IV) = target: T1, collagenase (type IV); assay: fluorogenic EnzChek gelatinase/collagenase kit; format: biochemical; conditions: per kit instructions; positive control
T1 construct: gene colG; known from the kit
Source text: fluorogenic EnzChek gelatinase/collagenase kit on collagenase (type IV)

hyaluronidase = target: T2, hyaluronidase; assay: hyaluronic acid turbidity, absorbance […] nm; format: biochemical; conditions: 37 °C; hyaluronic acid substrate pH 5.35; reference compound; printed interval does not contain the value
T2 construct: gene SPAM1

Structure (SMILES): O=C(O[C@@H]1Cc2c(O)cc(O)cc2O[C@@H]1c1cc(O)c(O)c(O)c1)c1cc(O)c(O)c(O)c1 [EGCG, epigallocatechin gallate]
- Collagenase (collagenase (type IV)): 4.8 (4.1–5.5) µg/mL
- Hyaluronidase (hyaluronidase): 119.1 (126.1–320.4) µg/mL
